Experimental data as given in patent US20240065988A1, “COMBINED USE OF KETAMINE AND RETIGABINE (EZOGABINE) FOR THE TREATMENT OF PSYCHIATRIC DISORDERS” (Yeda Research and Development Co. Ltd., priority 2021, published 2024).
“Also recorded” adds a separate entry of the source.

Columns and labels:
CD-1 mice = assay: Social Box (SB) behavioral response, ketamine response score P-KET (PLS-DA); format: in vivo, mouse
Kcnq2 mRNA = Kcnq2 mRNA (qPCR) in the vHipp of CSDS mice, FACS-sorted cells and bulk; details: ketamine vs saline
CSDS mice (Nex-Cre-Ai9) = assay: Forced swim test in chronic social defeat stress (CSDS) mice; details: ketamine 10 mg/kg i.p. vs saline, two days after treatment
[1] = test system: CD-1 mice injected with shRNA-Kcnq2 or shRNA-control AAV; assay: Forced swim test after AAV shRNA knockdown of Kcnq2 in the vHipp; format: in vivo, mouse

CNC1(c2ccccc2Cl)CCCCC1=O (racemic) [ketamine, (R,S)-ketamine]
response to ketamine (P-KET) in the SB vs saline (CD-1 mice; ketamine 10 mg/kg): significant difference | SB behavioral readouts (PLSDA classifier) (CD-1 mice; ketamine 10 mg/kg/BW i.p.): spent more time exploring in an open area of the SB arena; also recorded: more social and anxiolytic behaviors | Kcnq2 mRNA expression (Kcnq2 mRNA; bulk mRNA): no significant increase of Kcnq2 mRNA | Kcnq2 mRNA expression (Kcnq2 mRNA; glutamatergic neurons (tdTomato+)): significantly increased to baseline levels | Kcnq2 mRNA expression (Kcnq2 mRNA; tdTomato negative cells): no significant differences | immobility time during the FST (CSDS mice (Nex-Cre-Ai9)): significant decrease in immobility time | antidepressant-like effects of ketamine in the FST ([1]; mice expressing the shRNA-Kcnq2 virus, ketamine 10 mg/kg BW): no longer detected | immobility time during the FST ([1]; shRNA-scramble control mice, ketamine 10 mg/kg BW vs saline): significant decrease in immobility time
